Test results taken from the NIST ThermoML archive (doi:10.1016/j.jct.2013.10.031).
± gives the expanded uncertainty stated by the source.

Test: wn = mass fraction of the nth substance listed
Conditions: Gas, Burnett expansion method

FCC(F)(F)F [1,1,1,2-tetrafluoroethane] + CCC
Conditions | mass density [kg/m3]
272.14 K, 376.9 kPa, w2 = 0.4 | 12.2714 ± 0.73
272.14 K, 486.9 kPa, w2 = 0.4 | 16.3457 ± 0.75
275.01 K, 306 kPa, w2 = 0.6 | 8.178 ± 0.58
275.01 K, 398.5 kPa, w2 = 0.6 | 10.8743 ± 0.61
275.01 K, 514 kPa, w2 = 0.6 | 14.4598 ± 0.63
275.02 K, 233.7 kPa, w2 = 0.6 | 6.1499 ± 0.56
275.03 K, 233.5 kPa, w2 = 0.55 | 6.3604 ± 0.58
275.04 K, 177.6 kPa, w2 = 0.55 | 4.7832 ± 0.56
275.04 K, 259 kPa, w2 = 0.65 | 6.6072 ± 0.55
275.04 K, 397.9 kPa, w2 = 0.55 | 11.2458 ± 0.63
275.04 K, 513.5 kPa, w2 = 0.55 | 14.954 ± 0.67
275.05 K, 134.8 kPa, w2 = 0.55 | 3.597 ± 0.55
275.05 K, 197.5 kPa, w2 = 0.65 | 4.9688 ± 0.53
275.05 K, 305.8 kPa, w2 = 0.55 | 8.4571 ± 0.6
275.05 K, 338.2 kPa, w2 = 0.65 | 8.7857 ± 0.57
275.06 K, 150.2 kPa, w2 = 0.65 | 3.7365 ± 0.52
275.06 K, 438.6 kPa, w2 = 0.65 | 11.682 ± 0.58
276.01 K, 525 kPa, w2 = 0.5 | 16.127 ± 0.68
276.07 K, 240.8 kPa, w2 = 0.5 | 6.8235 ± 0.6
276.07 K, 314.5 kPa, w2 = 0.5 | 9.08914 ± 0.64
276.08 K, 138.3 kPa, w2 = 0.5 | 3.84563 ± 0.58
276.08 K, 182.4 kPa, w2 = 0.5 | 5.12246 ± 0.58
276.08 K, 408.6 kPa, w2 = 0.5 | 12.1069 ± 0.68
276.09 K, 131.9 kPa, w2 = 0.4 | 3.96275 ± 0.63
276.09 K, 173.8 kPa, w2 = 0.4 | 5.27854 ± 0.64
276.09 K, 228.4 kPa, w2 = 0.4 | 7.03132 ± 0.66
276.09 K, 299.1 kPa, w2 = 0.4 | 9.36594 ± 0.68
276.09 K, 389.5 kPa, w2 = 0.4 | 12.4758 ± 0.72
276.09 K, 503.4 kPa, w2 = 0.4 | 16.618 ± 0.74
276.23 K, 613 kPa, w2 = 0.45 | 19.9443 ± 0.76
276.24 K, 369.2 kPa, w2 = 0.45 | 11.24 ± 0.67
276.25 K, 215.6 kPa, w2 = 0.45 | 6.3345 ± 0.62
276.25 K, 282.9 kPa, w2 = 0.45 | 8.43787 ± 0.64
276.25 K, 478.6 kPa, w2 = 0.45 | 14.9718 ± 0.72
276.26 K, 163.8 kPa, w2 = 0.45 | 4.75547 ± 0.61
278.98 K, 613.4 kPa, w2 = 0.55 | 18.0169 ± 0.75
278.99 K, 431 kPa, w2 = 0.65 | 11.2429 ± 0.59
279 K, 193.1 kPa, w2 = 0.65 | 4.7818 ± 0.52
279 K, 253.6 kPa, w2 = 0.65 | 6.3584 ± 0.53
279 K, 331.6 kPa, w2 = 0.65 | 8.4549 ± 0.55
279 K, 555.1 kPa, w2 = 0.65 | 14.9493 ± 0.61
279.04 K, 478.7 kPa, w2 = 0.55 | 13.5464 ± 0.65
279.05 K, 201 kPa, w2 = 0.6 | 5.1513 ± 0.53
279.05 K, 264.1 kPa, w2 = 0.6 | 6.8498 ± 0.55
279.06 K, 152.4 kPa, w2 = 0.6 | 3.874 ± 0.53
279.06 K, 345.5 kPa, w2 = 0.6 | 9.1083 ± 0.58
279.06 K, 369.2 kPa, w2 = 0.55 | 10.1866 ± 0.6
279.06 K, 448.9 kPa, w2 = 0.6 | 12.1114 ± 0.61
279.06 K, 577.6 kPa, w2 = 0.6 | 16.1046 ± 0.65
279.07 K, 163.6 kPa, w2 = 0.55 | 4.3324 ± 0.55
279.07 K, 282.8 kPa, w2 = 0.55 | 7.6605 ± 0.58
279.08 K, 215.4 kPa, w2 = 0.55 | 5.7608 ± 0.56
280.01 K, 670.7 kPa, w2 = 0.4 | 22.729 ± 0.8
280.02 K, 180.8 kPa, w2 = 0.4 | 5.41974 ± 0.63
280.02 K, 237.8 kPa, w2 = 0.4 | 7.21933 ± 0.65
280.02 K, 311.5 kPa, w2 = 0.4 | 9.61644 ± 0.67
280.02 K, 405.9 kPa, w2 = 0.4 | 12.8096 ± 0.71
280.02 K, 524.7 kPa, w2 = 0.4 | 17.0629 ± 0.76
280.17 K, 150 kPa, w2 = 0.45 | 4.28073 ± 0.61
280.17 K, 197.2 kPa, w2 = 0.45 | 5.70206 ± 0.62
280.17 K, 436.6 kPa, w2 = 0.45 | 13.4767 ± 0.7
280.18 K, 257.8 kPa, w2 = 0.45 | 7.59526 ± 0.63
280.18 K, 336.4 kPa, w2 = 0.45 | 10.1172 ± 0.66
280.18 K, 562.4 kPa, w2 = 0.45 | 17.9508 ± 0.69
280.2 K, 176.2 kPa, w2 = 0.5 | 4.88417 ± 0.64
280.2 K, 228 kPa, w2 = 0.5 | 6.50598 ± 0.63
280.2 K, 295.2 kPa, w2 = 0.5 | 8.66625 ± 0.66
280.2 K, 382.2 kPa, w2 = 0.5 | 11.5437 ± 0.69
280.2 K, 490.7 kPa, w2 = 0.5 | 15.3768 ± 0.75
280.2 K, 626.5 kPa, w2 = 0.5 | 20.4828 ± 0.77
282.96 K, 514.9 kPa, w2 = 0.6 | 16.8632 ± 0.73
282.98 K, 397.4 kPa, w2 = 0.6 | 10.4251 ± 0.89
282.98 K, 629.9 kPa, w2 = 0.6 | 18.4329 ± 0.21
282.99 K, 232 kPa, w2 = 0.6 | 5.8957 ± 0.53
282.99 K, 301.9 kPa, w2 = 0.65 | 7.5146 ± 0.53
282.99 K, 304.4 kPa, w2 = 0.6 | 7.8397 ± 0.55
282.99 K, 353.3 kPa, w2 = 0.55 | 9.521 ± 0.59
282.99 K, 510.2 kPa, w2 = 0.65 | 13.287 ± 0.61
282.99 K, 592.4 kPa, w2 = 0.55 | 16.8344 ± 0.67
283 K, 155.9 kPa, w2 = 0.55 | 4.0493 ± 0.54
283 K, 176.1 kPa, w2 = 0.6 | 4.4337 ± 0.53
283 K, 205.5 kPa, w2 = 0.55 | 5.3845 ± 0.55
283 K, 230.2 kPa, w2 = 0.65 | 5.6511 ± 0.52
283 K, 270 kPa, w2 = 0.55 | 7.1599 ± 0.56
283 K, 393.8 kPa, w2 = 0.65 | 9.9922 ± 0.56
283 K, 459.5 kPa, w2 = 0.55 | 12.6599 ± 0.63
283 K, 653.6 kPa, w2 = 0.65 | 17.6674 ± 0.63
283.01 K, 175 kPa, w2 = 0.65 | 4.2497 ± 0.51
283.86 K, 174.7 kPa, w2 = 0.4 | 5.14203 ± 0.62
283.87 K, 229.9 kPa, w2 = 0.4 | 6.84912 ± 0.63
283.87 K, 301.6 kPa, w2 = 0.4 | 9.12315 ± 0.65
283.88 K, 393.6 kPa, w2 = 0.4 | 12.1512 ± 0.68
283.9 K, 510.3 kPa, w2 = 0.4 | 16.1858 ± 0.73
283.94 K, 655.1 kPa, w2 = 0.4 | 21.5571 ± 0.77
284.1 K, 397.4 kPa, w2 = 0.45 | 11.7333 ± 0.65
284.1 K, 515.6 kPa, w2 = 0.45 | 15.6293 ± 0.7
284.1 K, 662.3 kPa, w2 = 0.45 | 20.819 ± 0.72
284.11 K, 176.2 kPa, w2 = 0.45 | 4.96426 ± 0.59
284.11 K, 231.9 kPa, w2 = 0.45 | 6.61256 ± 0.6
284.11 K, 304.4 kPa, w2 = 0.45 | 8.80835 ± 0.62
284.11 K, 711.7 kPa, w2 = 0.5 | 21.5401 ± 0.72
284.12 K, 555.4 kPa, w2 = 0.5 | 16.1702 ± 0.68
284.13 K, 189.6 kPa, w2 = 0.5 | 5.13602 ± 0.56
284.13 K, 249.8 kPa, w2 = 0.5 | 6.84131 ± 0.58
284.13 K, 327.9 kPa, w2 = 0.5 | 9.11297 ± 0.6
284.13 K, 428.3 kPa, w2 = 0.5 | 12.139 ± 0.63
287 K, 196.2 kPa, w2 = 0.6 | 4.8811 ± 0.52
287 K, 768.5 kPa, w2 = 0.65 | 20.9537 ± 0.65
287.01 K, 258.3 kPa, w2 = 0.6 | 6.4904 ± 0.53
287.01 K, 274.8 kPa, w2 = 0.65 | 6.7019 ± 0.52
287.01 K, 311.4 kPa, w2 = 0.55 | 8.1881 ± 0.56
287.01 K, 338.5 kPa, w2 = 0.6 | 8.6303 ± 0.55
287.01 K, 406.7 kPa, w2 = 0.55 | 10.8878 ± 0.59
287.01 K, 527.4 kPa, w2 = 0.55 | 14.4779 ± 0.63
287.01 K, 571.1 kPa, w2 = 0.6 | 15.26 ± 0.62
287.01 K, 603.8 kPa, w2 = 0.65 | 15.7575 ± 0.62
287.01 K, 677.5 kPa, w2 = 0.55 | 19.2516 ± 0.66
287.01 K, 730.6 kPa, w2 = 0.6 | 20.2911 ± 0.66
287.02 K, 180 kPa, w2 = 0.55 | 4.6307 ± 0.54
287.02 K, 209 kPa, w2 = 0.65 | 5.0401 ± 0.51
287.02 K, 237.2 kPa, w2 = 0.55 | 6.1576 ± 0.54
287.02 K, 359.7 kPa, w2 = 0.65 | 8.9115 ± 0.54
287.02 K, 441.6 kPa, w2 = 0.6 | 11.4756 ± 0.58
287.02 K, 467.8 kPa, w2 = 0.65 | 11.85 ± 0.57
287.89 K, 145.9 kPa, w2 = 0.4 | 4.20423 ± 0.6
287.89 K, 192.3 kPa, w2 = 0.4 | 5.60013 ± 0.61
287.89 K, 253 kPa, w2 = 0.4 | 7.45965 ± 0.63
287.89 K, 331.1 kPa, w2 = 0.4 | 9.93648 ± 0.65
287.9 K, 431.5 kPa, w2 = 0.4 | 13.2354 ± 0.69
287.9 K, 558 kPa, w2 = 0.4 | 17.6298 ± 0.74
287.93 K, 714.8 kPa, w2 = 0.4 | 23.4815 ± 0.77
288.06 K, 650.7 kPa, w2 = 0.45 | 19.9802 ± 0.74
288.07 K, 171.7 kPa, w2 = 0.45 | 4.76422 ± 0.58
288.07 K, 226.1 kPa, w2 = 0.45 | 6.34615 ± 0.59
288.07 K, 297 kPa, w2 = 0.45 | 8.45356 ± 0.61
288.07 K, 388.5 kPa, w2 = 0.45 | 11.2604 ± 0.64
288.07 K, 505 kPa, w2 = 0.45 | 14.9994 ± 0.68
288.07 K, 827.4 kPa, w2 = 0.45 | 26.6134 ± 0.78
288.18 K, 242.5 kPa, w2 = 0.5 | 6.52495 ± 0.57
288.18 K, 416.8 kPa, w2 = 0.5 | 11.5774 ± 0.61
288.19 K, 184.1 kPa, w2 = 0.5 | 4.89841 ± 0.55
288.19 K, 318.7 kPa, w2 = 0.5 | 8.69128 ± 0.58
288.19 K, 541.6 kPa, w2 = 0.5 | 15.4214 ± 0.65
288.19 K, 696.9 kPa, w2 = 0.5 | 20.5413 ± 0.69
291 K, 851.2 kPa, w2 = 0.55 | 24.7999 ± 0.71
291.01 K, 519.6 kPa, w2 = 0.55 | 14.0252 ± 0.61
291.01 K, 669.4 kPa, w2 = 0.55 | 18.65 ± 0.67
291.02 K, 399.8 kPa, w2 = 0.55 | 10.5472 ± 0.58
291.03 K, 305.7 kPa, w2 = 0.55 | 7.9316 ± 0.55
291.04 K, 168.3 kPa, w2 = 0.6 | 4.1049 ± 0.5
291.04 K, 222.1 kPa, w2 = 0.6 | 5.4582 ± 0.51
291.04 K, 232.6 kPa, w2 = 0.55 | 5.9647 ± 0.54
291.04 K, 292.1 kPa, w2 = 0.6 | 7.2581 ± 0.53
